Molecules are shown by their SMILES. Values after ≈ are worked out from the molar mass of the structure shown. A value given as a limit tells only on which side of the number the result lay.

Usually MIC stands for the lowest concentration found to suppress growth. For orientation: fraction unbound means the share of the substance not bound to proteins or other matrix. A word on the ED50: it is the dose that gives a 50% effect, or the effect in half of the subjects.

Series [1] is described as follows: In vitro stability of compounds in rat serum. Type of series: in vitro ADME. Conditions: compared with other 7-acylamino-3-heteroarylthio-3-cephem carboxylic acids. The procedure: In general, compounds from the class of 7-acylamino-3-heteroarylthio-3-cephem carboxylic acids have higher chemical reactivity and lower stability towards chemical or enzymatic decomposition than most typical cephalosporins. […] Results shown in Table 2 represent percentage loss of the initial amount of cephalosporin compound upon 60 min incubation in rat serum.
Procedure for measuring degree of degradation of cephalosporin compounds in rat serum was as follows:
Fresh control rat serum (heparinized and stored frozen) is preincubated at 37 °C for 15 min in a shaking water bath. pH is measured using test strips. 25 µL of a 2 mg/mL solution cephalosporin compound (in water) of is then added to each matrix to make 1000 µL. Solutions were incubated at 37 °C. 100ul of solution was taken out at time = 0, 15, 30, and 60 min post dose and added 200 µL 4% trichloroacetic acid, vortexed, and centrifuged for 10 min at 14,000 rpm in an Eppendorfmicrocentrifuge. 25 µL of each supernatant was injected onto HPLC. Experiment was repeated using 25 µL of a 0.2 mg/mL cephalosporin compound. Degradation is measured as the percentage of HPLC peak area at time t relative to peak area at time 0.
HPLC conditions: Beckman Ultrasphere C18 column. 5u. 4.6mm x 25cm. 1 mL/min of 95% 0.1 M ammonium acetate, pH 6, 5% ACN going to 75% buffer/organic over 20min. UV monitored at 254 and 280 nm.

The subject of series [2] is S. aureus PC1 (Meth^S)(lac^+). The experiment in a line: Broth microdilution MIC (NCCLS). Type of series: cell-based. Conditions: Staphylococcus aureus; S. aureus PC1 (Meth^S)(lac^+); Mueller-Hinton Broth, 24 h at 35 °C; read-out: MIC. The method, then: (§1) Compounds were evaluated for antimicrobial activity against a panel of bacterial strains using a broth microdilution assay performed as recommended by the NCCLS (1). The minimum inhibitory concentration (MIC) was defined as the lowest concentration of drug which prevented the growth of the bacteria. The following 16 organisms constituted the primary panel of evaluation:
(§2) For this primary panel, the assay was performed in Mueller-Hinton Broth (MHB) with a final bacterial inoculum of 5 x 10^5 CFU/mL (from an early-log phase culture) and a final volume of 100 µL. Control drugs, including imipenem, vancomycin, Penicillin G, dicloxacillin (vs. MSSA ATCC29213 only), and new compounds were prepared at a concentration equivalent to 2-fold the desired final concentration. Dilution of compounds were prepared directly in the plates by serial 2-fold dilution using a multichannel pipette. Positive and negative growth control were included in each plate.
(§3) The bacterial inocula were prepared as follows. For each strain one isolated colony was used to inoculate a volume of 8 mL of Mueller-Hinton broth and these cultures were incubated overnight (20h) at 35 °C in a shaking incubator. At the exception of Enterococcus strains, culture were then diluted 1:10 and allowed to grow for an additional one hour at 35 °C in a shaking incubator. The inocula were prepared by diluting the early log-phase (1h) cultures 1:1000 with fresh Mueller-Hinton broth. E. faecium and E. faecalis were prepared by diluting overnight cultures 1:333 and 1:666, respectively, with fresh Mueller-Hinton broth . A volume of 50 µL of the inocula was added to each well. […] The exact inocula were determined by applying […] of 10-fold serial dilution of the bacterial suspensions on TSA. After overnight incubation at 35 °C, colony forming units were manually counted.
(§4) Microtiter plates were incubated during 24 h at 35 °C and were read using a microtiterplate reader (Molecular Devices) at 650 nm as well as by visual observation using a microtiterplate reading mirror.

In series [3] the test system is E. coli ATCC25992. Put plainly: Broth microdilution MIC (NCCLS). Conditions: Escherichia coli, Mueller-Hinton Broth, 24 h at 35 °C. Type of series: cell-based. The method, then:
as §1, §2, §3, §4

The test system of series [4] is E. faecium ATCC 35667. The experiment in a line: Broth microdilution MIC (NCCLS). Format: cell-based. The note with it: Enterococcus faecium, ATCC35667, Mueller-Hinton Broth, 24 h at 35 °C. The method, then: as §1, §2, §3, §4
In general terms: Dilution methods test growth across graded concentrations, often in twofold steps.

In series [5] the test system is S. aureus Spain #356 (Meth^R). Put plainly: Broth microdilution MIC (NCCLS). Format: cell-based. The note with it: Staphylococcus aureus, Mueller-Hinton Broth, 24 h at 35 °C. The method, then:
as §1, §2, §3, §4

Series [6] deals with E. faecalis ATCC 29212. Put plainly: Broth microdilution MIC (NCCLS). Type of series: cell-based. The note with it: Enterococcus faecalis, ATCC29212, Mueller-Hinton Broth, 24 h at 35 °C. The procedure:
as §1, §2, §3, §4

For series [7], the system named is E. faecium A491 (Amp^R). Put plainly: Broth microdilution MIC (NCCLS). Type of series: cell-based. Conditions: Enterococcus faecium, Mueller-Hinton Broth, 24 h at 35 °C. The method, then: as §1, §2, §3, §4
For series [8], the system named is S. haemolyticus 05 (Meth^R). The experiment in a line: Broth microdilution MIC (NCCLS). Conditions: Staphylococcus haemolyticus, Mueller-Hinton Broth, 24 h at 35 °C. Type of series: cell-based. The procedure:
as §1, §2, §3, §4

For series [9], the system named is P. aeruginosa ATCC 27853. The experiment in a line: Broth microdilution MIC (NCCLS). Type of series: cell-based. Conditions: Pseudomonas aeruginosa, ATCC27853, Mueller-Hinton Broth, 24 h at 35 °C. The procedure:
as §1, §2, §3, §4

The test system of series [10] is S. aureus ATCC 29213. Put plainly: Broth microdilution MIC (NCCLS). Conditions: Staphylococcus aureus, ATCC29213, Mueller-Hinton Broth, 24 h at 35 °C. Format: cell-based. The method, then:
as §1, §2, §3, §4

Series [11] has as its system S. aureus ATCC 33593 (Meth^R). The experiment in a line: Broth microdilution MIC (NCCLS). Format: cell-based. Conditions: Staphylococcus aureus, ATCC33593, Mueller-Hinton Broth, 24 h at 35 °C. The procedure: as §1, §2, §3, §4
The test system of series [12] is E. faecium VanA (Van^R). The experiment in a line: Broth microdilution MIC (NCCLS). Format: cell-based. Conditions: Enterococcus faecium, Mueller-Hinton Broth, 24 h at 35 °C. The method, then: as §1, §2, §3, §4
Series [13] concerns S. aureus 76 (Meth^R)(lac^+). The experiment in a line: Broth microdilution MIC (NCCLS). Format: cell-based. The note with it: Staphylococcus aureus, Mueller-Hinton Broth, 24 h at 35 °C. The method, then:
as §1, §2, §3, §4

The test system of series [14] is E. faecalis VanB (Van^R). Put plainly: Broth microdilution MIC (NCCLS). Type of series: cell-based. Conditions: Enterococcus faecalis, Mueller-Hinton Broth, 24 h at 35 °C. The method, then:
as §1, §2, §3, §4

A short description of series [15]: Serum binding determination by ultrafiltration and HPLC. Type of series: in vitro ADME. Conditions: % of compound bound to serum as determined by HPLC; human serum. The method, then: The more accurate measurement of binding of selected cephalosporin compounds was performed using HPLC as described below. […] Serum is placed in a shaking water bath preheated to 37 ± 2 °C for 5 to 10 minutes to heat serum to 37 °C. Serum pH is measured and recorded, while serum is 37 °C using pH paper. Measurements are taken twice, 3 minutes apart. […] After blowing for several minutes, serum is heated to 37 °C and measurements are taken twice, 3 minutes apart using pH paper to determine the pH. Store at 4 °C. The serum is stable for 7 days. Always check the pH before each use. • 2. Before any centrifugation, the centrifuge temperature must be adjusted to 25 ± 2 °C. Preheat the centrifuge by spinning for 45 minutes at the same speed to be used in the assay (1900 g) with two tubes of water in the rotor and the temperature set to 25 °C. When the centrifuge stops immediately check the temperature of the tubes of water with a calibrated thermometer. The temperature of the tubes of water must be 25 ± 2 °C. […] Continue spinning and measuring the temperature and adjusting the setting until the temperature is 25 ± 2 °C. • 3. Prepare blank ultrafiltrate by pipetting blank pH 7.4 serum into an Amicon Centrifree Micropartition devices, centrifuge: fixed angle rotor, 1900 g, 25 °C for 20 minutes. Heat ultrafiltrate in a shaking water bath preheated to 37 °C. Measure ultrafiltrate pH and adjust to the pH of the serum (7.4 ± 0.2). • 4. Pipette 190 ul of blank ultrafiltrate into a set of labeled 1.7 mL polypropylene microfuge tubes for 3 of each level. Pipette 10 µL of the appropriate standard stock 50, 200, 1000 µg/mL to make standards 2.5, 10, and 50 µg/mL respectively. Vortex each tube well. One set of the standard samples are mixed 1:1 with 0.2 M acetic acid and injected onto the HPLC (MSTD). These samples are the membrane standards and will be used to compare to the other standards. Pipette 190 ul of ultrafiltrate and spike with 10 ul of whatever solution (e.g. water) the standards are prepared in to make the zero standard. • 5. Pipette 475 µL of blank heated pH 7.4 serum into a set of labeled 1.7 mL polypropylene microfuge tubes for 2 of each (Serum A and Serum B). Pipette 25 µL of the 1000 µg/mL standard stock into each tube, vortex each tube well to make serum standard 50 µg/mL. Remove 100 µL of serum and deproteinate with 200 µL 4% TCA while vortexing to make serum time 0 (serum 50, T0). Place serum tubes in a shaking water bath at 37 °C for 10 minutes. Pipet 100 µL of serum out and deproteinate with 200 µL 4% TCA, to make serum time 10 min (serum 50, T10). Pipet 200 ul serum standard 50 µg/mL into an ultrafiltration device, which is not treated with TCA, to determine free drug in samples (Rat Serum 50). • 6. Transfer serum and standard samples to labeled Amicon Centrifree Micropartition filters, and centrifuge: 1900 g, 25 °C for 10 minutes. The extracted serum samples (T0 and T 10) are spun down and supernatant is loaded into HPLC vials. • 7. 100 µL of ultrafiltrate sample and 100 µL of 0.2 M acetic acid were mixed together to stabilize the compound in ultrafiltrate. • 8. Transfer entire stabilized ultrafiltrate solution to a labeled autoinjector HPLC vial cap with Teflon septa, and inject on HPLC.
Peak height or area is used in a weighted linear regression.
High levels of binding to human serum proteins limits the concentration of compound available for antibacterial activity in the body.

Series [16] has as its system S. aureus ATCC 13709 (Smith diffuse). The experiment in a line: Murine model for lethal bacteremic peritonitis (septicemia). Format: in vivo, mice. The note with it: for Efficacy in murine septicemia %survival: subcutaneously at 0 and 2 hrs post-challenge. The procedure:
10 mice/group were injected intraperitoneally with 2.98x10^7 cfu S. aureus ATCC 13709 (Smith diffuse) and treated at 0 and 2hrs post-challenge with serial two-fold doses of new cephalosporin antibiotic, imipenem and vancomycin subcutaneously in order to determine the ED50. Male Swiss-Webster mice weighing originally 24.2 - 26.1 g were obtained from Charles Rivers Labs, Hollister, CA. Mice were housed 10 per cage and given free access to water and mouse chow.
Staphylococcus aureus ATCC 13709 (Smith diffuse) was grown overnight at 37 °C in Brain-heart Infusion broth (BHIB). The following morning, it was subcultured to fresh BHIB and incubated for 4-5h at 37 °C. The log-phase growth cells were washed once with physiological saline and adjusted to the desired concentration by correlation of absorbency at OD 600 nm with predetermined plate counts (NCCLS, 1994). The cell suspension was mixed with an equal volume of sterile 14% hog-gastric mucin (2). Inoculum was kept in an ice bath until used (<1h).
Mice were challenged via an injection of 0.5 mL bacterial suspension intraperitoneally. The bacterial challenge was 2.98 x 10^7 cfu/mouse.
Imipenem (Primaxin IV; Lot 7294A), vancomycin (Vancocin; Lot 8MU60W), and new cephalosporin antibiotic were prepared by serial two-fold dilutions to concentrations of 0.078 - 0.005 mg/mL, 1.2 - 0.075 mg/mL, 0.3 - 0.02 mg/mL, 0.3 - 0.02 mg/mL and 0.3 - 0.02 mg/mL respectively in sterile water (1). All antibiotics were administered subcutaneously in 0.1 mL volumes at 0 and 2 hours post-challenge. Concentrations of all compounds are based on the weight of the bioactive ingredients.
The 50% effective dose (ED50) was calculated by the probit method (3) utilizing a program entitled Probit (Nycomed-Salutar).

As to `NCCSCc1ccncc1SC1=C(C(=O)O)N2C(=O)[C@@H](NC(=O)/C(=N\O)c3nsc(N)n3)[C@H]2SC1` [Cmpd 4, (7R)-7-[(Z)-2-(5-amino-1,2,4-thiadiazol-3-yl)-2-(hydroxyimino)acetamido]-3-[4-(2-aminoethylthiomethyl)pyrid-3-ylthio]-3-cephem-4-carboxylic acid], the “stability in rat serum (statement in words)” value in series [1] is reported as “improved stability”. Moreover, the MIC in series [2] is 0.5 µg/mL (≈ 0.879 µM); in series [3], 4 µg/mL (≈ 7.03 µM); in series [4] it was 8 µg/mL (≈ 14.1 µM); in series [5], 16 µg/mL (≈ 28.1 µM); in series [6], 2 µg/mL (≈ 3.52 µM); in [7], greater than 32 µg/mL. For the same molecule, the MIC in series [8] was 16 µg/mL (≈ 28.1 µM); in [9] it was greater than 32 µg/mL; in series [10], 0.5 µg/mL (≈ 0.879 µM); in series [11], 8 µg/mL (≈ 14.1 µM); in [12], 8 µg/mL (≈ 14.1 µM); in [13] it was 8 µg/mL (≈ 14.1 µM). In [14], this molecule registered an MIC of 2 µg/mL (≈ 3.52 µM).
`CN[C@H](CC(C)C)C(=O)N[C@H]1C(=O)N[C@@H](CC(N)=O)C(=O)N[C@H]2C(=O)N[C@H]3C(=O)N[C@H](C(=O)N[C@H](C(=O)O)c4cc(O)cc(O)c4-c4cc3ccc4O)[C@H](O)c3ccc(c(Cl)c3)Oc3cc2cc(c3O[C@@H]2O[C@H](CO)[C@@H](O)[C@H](O)[C@H]2O[C@H]2C[C@](C)(N)[C@H](O)[C@H](C)O2)Oc2ccc(cc2Cl)[C@H]1O` [Van, Vancomycin] had a fraction unbound in series [15] of 0.45. Moreover, the “Efficacy in murine septicemia %survival” value in series [16] (Dose 5 mg/kg) was 5/100%; in series [16] (Dose 10 mg/kg) it was 10/100%. The ED50 in series [16] (Staphylococcus aureus, ATCC13709, sc, read-out: Efficacy in murine septicemia ED50) stood at 2.41 mg/kg.

For the origin of these results see patent EP1222194B1, “7-ACYLAMINO-3-HETEROARYLTHIO-3-CEPHEM CARBOXYLIC ACID ANTIBIOTICS AND PRODRUGS THEREOF” (priority 1999, dated 2001).
